Measured values as given in patent US12384787B2, “Fused heterocyclic compounds and their use as pest control agents” (PI INDUSTRIES LTD., priority 2019, dated 2025).

Tests used:
Assay type in all cases: in vivo
Spodoptera litura = Spodoptera litura diet incorporation method; conditions: third instar larvae, 96 h after release, dead and moribund combined, compared to untreated control, read-out: Percent mortality
Description: Diet incorporation method was used, in which the required quantity of test compounds were weighed and dissolved in surfactant solution, kept on vortex for 90 min for proper mixing, then diluted with water to the desired test concentrations. The solutions were incorporated into semi-synthetic diet when the temperature reached approximately 50° C. in the bioassay containers. The diet and solution was stirred thoroughly for properly mixing and was left to cool for 30 min. The solidified diet was cut into equal pieces, and then each piece was transferred into one cell of the bio-assay trays. A single starved third instar larva was released into each of these cells of the bioassay trays and the tray was covered with a lid. The bio-assay trays were kept under laboratory conditions at a temperature of 25° C. and relative humidity of 70%. Observations on dead, moribund and alive larvae were recorded at 96 h after the release of the larvae. Percent mortality was calculated by combining dead and moribund larvae and comparing the result to the one of the untreated control.

Plutella xylostella = Plutella xylostella leaf dip method (cabbage leaves); conditions: foliar, second instar larvae, 72 h after release, dead and moribund combined, compared to untreated control, read-out: Percent mortality
Nilaparvata lugens = Nilaparvata lugens seedling dip method (paddy seedlings); conditions: third instar nymphs, 72 h after release, dead and moribund combined, compared to untreated control, read-out: Percent mortality
Description: Seedling dip method was used for screening, wherein the required quantity of the test compounds were weighed and dissolved in surfactant solution, kept on a Vortex at 2000 rpm with zirconia beads for 90 min for proper mixing, then diluted with 0.01% Triton-X solution to the desired test concentration. Paddy seedlings were dipped in the solution for 10 seconds, shade dried for 20 min and then transferred into glass tubes with the roots kept in water. Known numbers of third instar nymphs were released into the test tubes and the tubes were kept in the plant growth chamber at a temperature of 25° C. and relative humidity of 75%. Observations on dead, moribund and living nymphs were recorded at 72 h after the release. Percent mortality was calculated by combining dead and moribund nymphs and comparing the result to the one of the untreated control.

Measured: mortality at 300 ppm

CCS(=O)(=O)c1nn2cc(-c3ccc(Cl)cc3)cnc2c1-c1nc2cc(C(F)(F)F)cnc2n1C [Compound 63, 2-(6-(4-Chlorophenyl)-2-(ethylsulfonyl)pyrazolo[1,5-a]pyrimidin-3-yl)-3-methyl-6-(trifluoromethyl)-3H-imidazo[4,5-b]pyridine]
> 70%: all assays above
